From patent publication US20250177408A1, “INHIBITOR OF INTERACTION BETWEEN YAP/TAZ AND TEAD, PREPARATION THEREOF, PHARMACEUTICAL COMPOSITION THEREOF AND USE THEREOF” (ETERN BIOPHARMA (SHANGHAI) CO., LTD., priority 2022, published 2025) come the findings set out here.

For assay [1], the target named is YAP-TEAD protein interaction (His-TEAD1 (209-426) protein, Bio-YAP peptide (60-100)) (Homo sapiens, UniProt P28347). As to the kind of experiment: YAP-TEAD protein interaction HTRF experiment. The following applies: His-TEAD1 (209-426) 10 nM, Bio-YAP peptide 50 nM, read-out: Activity of each compound in blocking YAP-TEAD protein interaction (grades of IC50 values). The format is binding. A digest of the protocol: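 His-TEAD1 (209-426) at 10 nM final was preincubated 20 min at RT with compounds (10-point 3-fold dilutions, duplicates, 1% DMSO), then Bio-YAP peptide, 10 min. Anti-His-Eu cryptate/streptavidin-XL665 added for 1 h at RT; HTRF read at ex 320 nm, Em665/Em620 ratio ×10000, IC50 from % inhibition.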
YAP-TEAD protein interaction (His-TEAD1 (209-426) protein, Bio-YAP peptide (60-100)), sequence (P28347 209-426): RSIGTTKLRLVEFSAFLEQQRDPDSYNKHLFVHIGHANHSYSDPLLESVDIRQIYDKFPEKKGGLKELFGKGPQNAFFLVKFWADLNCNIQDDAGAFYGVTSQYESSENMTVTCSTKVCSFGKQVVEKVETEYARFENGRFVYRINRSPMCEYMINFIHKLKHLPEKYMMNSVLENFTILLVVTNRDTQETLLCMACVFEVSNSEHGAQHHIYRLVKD
In general terms: TR-FRET usually uses a lanthanide donor and a delayed reading to cut background.

Assay [2] concerns MSTO-211H cells. As to the kind of experiment: Cell proliferation inhibition experiment (CellTiter-Glo). The format is cell-based. The following applies: Homo sapiens, 96 hours, read-out: Inhibitory activity of each compound on the proliferation of MSTO-211H cells (grades of IC50 values). A digest of the protocol:
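MSTO-211H cells (1500/well, RPMI1640 + 10% FBS) were plated overnight at 37° C, 5% CO2, then exposed in duplicate to 9 three-fold compound dilutions (DMSO ≤0.5% final) for 96 hours. Viability was read as CellTiter-Glo luminescence after 10 min at room temperature. IC50 was derived from inhibition of the CTG signal.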
(In general: Cellular ATP, detected with luciferase, serves as a proxy for viable cell number.)

Where only a bound is given, the exact number is not on record here.

In the case of `[2H]C([2H])([2H])n1ncc2c(c1=O)Oc1c(cc(C(N)=O)c(-c3c(Cl)c(F)cc4c3C[C@](c3ccccc3)([C@@H]3CCCN3)O4)c1F)O2` (atropisomer, axis not shown) [Compound 131, (S)-8-((S)-5-Chloro-6-fluoro-2-phenyl-2-((S)-pyrrolidin-2-yl)-2,3-dihydrobenzofuran-4-yl)-9-fluoro-2-(methyl-d3)-1-oxo-1,2-dihydrobenzo[5,6][1,4]dioxo[2,3-d]pyridazine-7-carboxamide], the IC50 in assay [1] is under 50 nM; in assay [2], under 200 nM.

On to `[2H]C([2H])([2H])n1ncc2c(c1=O)Oc1cc(C(N)=O)c(-c3c(Cl)c(F)cc4c3C[C@](c3ccccc3)([C@@H]3CCCN3)O4)c(F)c1O2` (atropisomer, axis not shown) [Compound 132, (S)-8-((S)-5-Chloro-6-fluoro-2-phenyl-2-((S)-pyrrolidin-2-yl)-2,3-dihydrobenzofuran-4-yl)-9-fluoro-3-(methyl-d3)-4-oxo-3,4-dihydrobenzo[5,6][1,4]dioxo[2,3-d]pyridazine-7-carboxamide], for which the IC50 in assay [1] was under 50 nM; in assay [2], under 200 nM.

Turning to `NC(=O)c1cc2c(c(F)c1-c1c(Cl)c(F)cc3c1C[C@](c1ccccc1)([C@@H]1CCCN1)O3)Oc1c(cnn(CCC(F)(F)F)c1=O)O2` (atropisomer, axis not shown) [Compound 133, (S)-8-((S)-5-Chloro-6-fluoro-2-phenyl-2-((S)-pyrrolidin-2-yl)-2,3-dihydrobenzofuran-4-yl)-9-fluoro-2-(3,3,3-trifluoropropyl)-1-oxo-1,2-dihydrobenzo[5,6][1,4]dioxo[2,3-d]pyridazine-7-carboxamide], the IC50 was under 50 nM in assay [1] and under 200 nM in assay [2].

On to `NC(=O)c1cc2c(c(F)c1-c1c(Cl)c(F)cc3c1C[C@](c1ccccc1)([C@@H]1CCCN1)O3)Oc1cnn(CCC(F)(F)F)c(=O)c1O2` (atropisomer, axis not shown) [Compound 134, (S)-8-((S)-5-Chloro-6-fluoro-2-phenyl-2-((S)-pyrrolidin-2-yl)-2,3-dihydrobenzofuran-4-yl)-9-fluoro-3-(3,3,3-trifluoropropyl)-4-oxo-3,4-dihydrobenzo[5,6][1,4]dioxo[2,3-d]pyridazine-7-carboxamide], for which the values for the IC50 in assay [1] and in assay [2] were under 50 nM and 500 to 5000 nM, respectively.

Turning to `Cn1ccc2c(c1=O)Oc1c(cc(C(N)=O)c(-c3c(Cl)c(F)cc4c3C[C@](c3ccccc3)([C@@H]3CCCN3)O4)c1F)O2` (atropisomer, axis not shown) [Compound 135, (S)-8-((S)-5-Chloro-6-fluoro-2-phenyl-2-((S)-pyrrolidin-2-yl)-2,3-dihydrobenzofuran-4-yl)-9-fluoro-2-methyl-1-oxo-1,2-dihydrobenzo[5,6][1,4]dioxo[2,3-c]pyridine-7-carboxamide], the IC50 in assay [1] is under 50 nM; in assay [2], under 200 nM.

`Cn1ccc2c(c1=O)Oc1cc(C(N)=O)c(-c3c(Cl)c(F)cc4c3C[C@](c3ccccc3)([C@@H]3CCCN3)O4)c(F)c1O2` (atropisomer, axis not shown) [Compound 136, (S)-7-((S)-5-Chloro-6-fluoro-2-phenyl-2-((S)-pyrrolidin-2-yl)-2,3-dihydrobenzofuran-4-yl)-6-fluoro-2-methyl-1-oxo-1,2-dihydrobenzo[5,6][1,4]dioxo[2,3-c]pyridine-8-carboxamide]: the IC50 in assay [1] was under 50 nM; in assay [2] it was under 200 nM.

On to `NC(=O)c1cc2c(c(F)c1-c1c(Cl)c(F)cc3c1C[C@](c1ccccc1)([C@@H]1CCCN1)O3)Oc1c(ncn(CCF)c1=O)O2` (atropisomer, axis not shown) [Compound 137, (S)-7-((S)-5-Chloro-6-fluoro-2-phenyl-2-((S)-pyrrolidin-2-yl)-2,3-dihydrobenzofuran-4-yl)-6-fluoro-3-(2-fluoroethyl)-4-oxo-3,4-dihydrobenzo[5,6][1,4]dioxo [2,3-d]pyrimidine-8-carboxamide], for which the results for the IC50 in assay [1] and in assay [2] were under 50 nM and under 200 nM, respectively.

Consider `NC(=O)c1cc2c(c(F)c1-c1c(Cl)c(F)cc3c1C[C@](c1ccccc1)([C@@H]1CCCN1)O3)Oc1ncn(CCF)c(=O)c1O2` (atropisomer, axis not shown) [Compound 138, (S)-8-((S)-5-Chloro-6-fluoro-2-phenyl-2-((S)-pyrrolidin-2-yl)-2,3-dihydrobenzofuran-4-yl)-9-fluoro-3-(2-fluoroethyl)-4-oxo-3,4-dihydrobenzo [5,6][1,4]dioxo [2,3-d]pyrimidine-7-carboxamide], for which the IC50 in assay [1] was under 50 nM; in assay [2], under 200 nM.

Consider `NC(=O)c1cc2c(c(F)c1-c1c(Cl)c(F)cc3c1C[C@](c1ccccc1)([C@@H]1CCCN1)O3)Oc1c(ncn(C3CC3)c1=O)O2` (atropisomer, axis not shown) [Compound 139, (S)-7-((S)-5-Chloro-6-fluoro-2-phenyl-2-((S)-pyrrolidin-2-yl)-2,3-dihydrobenzofuran-4-yl)-3-cyclopropyl-6-fluoro-4-oxo-3,4-dihydrobenzo [5,6][1,4]dioxo [2,3-d]pyrimidine-8-carboxamide], for which the results for the IC50 in assay [1] and in assay [2] were under 50 nM and under 200 nM, respectively.

With `NC(=O)c1cc2c(c(F)c1-c1c(Cl)c(F)cc3c1C[C@](c1ccccc1)([C@@H]1CCCN1)O3)Oc1ncn(C3CC3)c(=O)c1O2` (atropisomer, axis not shown) [Compound 140], the IC50 was under 50 nM in assay [1] and under 200 nM in assay [2].

In the case of `CNC(=O)c1cc2c(c(F)c1-c1c(Cl)c(F)cc3c1C[C@](c1ccccc1)([C@@H]1CCCN1)O3)Oc1c(cnn(CC(F)F)c1=O)O2` (atropisomer, axis not shown) [Compound 141, (S)-8-((S)-5-Chloro-6-fluoro-2-phenyl-2-((S)-pyrrolidin-2-yl)-2,3-dihydrobenzofuran-4-yl)-2-(2,2-difluoroethyl)-9-fluoro-N-methyl-1-oxo-1,2-dihydrobenzo[5,6][1,4]dioxo[2,3-d]pyridazine-7-carboxamide], the IC50 was under 50 nM in assay [1] and under 200 nM in assay [2].

`CNC(=O)c1cc2c(c(F)c1-c1c(Cl)c(F)cc3c1C[C@](c1ccccc1)([C@@H]1CCCN1)O3)Oc1c(cnn(CCC(F)(F)F)c1=O)O2` (atropisomer, axis not shown) [Compound 142, (R)-8-((S)-5-Chloro-6-fluoro-2-phenyl-2-((S)-pyrrolidin-2-yl)-2,3-dihydrobenzofuran-4-yl)-9-fluoro-N-methyl-1-oxo-2-(3,3,3-trifluoropropyl)-1,2-dihydrobenzo[5,6][1,4]dioxa[2,3-d]pyridazine-7-carboxamide]: the IC50 is under 50 nM in assay [1] and under 200 nM in assay [2].

Take `NC(=O)c1cc2c(c(F)c1-c1c(Cl)c(F)cc3c1C[C@](c1ccccc1)([C@@H]1CCCN1)O3)Oc1c(cnn(CC(F)(F)F)c1=O)O2` (atropisomer, axis not shown) [Compound 143, (S)-8-((S)-5-Chloro-6-fluoro-2-phenyl-2-((S)-pyrrolidin-2-yl)-2,3-dihydrobenzofuran-4-yl)-9-fluoro-1-oxo-2-(2,2,2-trifluoroethyl)-1,2-dihydroxybenzo[5,6][1,4]dioxo[2,3-d]pyridazine-7-carboxamide]: the IC50 in assay [1] was under 50 nM; in assay [2], under 200 nM.

On to `CNC(=O)c1cc2c(c(F)c1-c1c(Cl)c(F)cc3c1C[C@](c1ccccc1)([C@@H]1CCCN1)O3)Oc1c(cnn(CC(F)(F)F)c1=O)O2` (atropisomer, axis not shown) [Compound 144], for which the IC50 in assay [1] was under 50 nM; in assay [2], under 200 nM.

For the compound `NC(=O)c1cc2c(c(F)c1-c1c(Cl)c(F)cc3c1C[C@](c1ccccc1)([C@@H]1CCCN1)O3)Oc1c(cnn(C3CC(F)(F)C3)c1=O)O2` (atropisomer, axis not shown) [Compound 147, (S)-8-((S)-5-Chloro-6-fluoro-2-phenyl-2-((S)-pyrrolidin-2-yl)-2,3-dihydrobenzofuran-4-yl)-2-(3,3-difluorocyclobutyl)-9-fluoro-1-oxo-1,2-dihydrobenzo[5,6][1,4]dioxa[2,3-d]pyridazine-7-carboxamide], the values for the IC50 in assay [1] and in assay [2] were under 50 nM and under 200 nM, respectively.

Take `CNC(=O)c1cc2c(c(F)c1-c1c(Cl)c(F)cc3c1C[C@](c1ccccc1)([C@@H]1CCCN1)O3)Oc1c(cnn(C3CC(F)(F)C3)c1=O)O2` (atropisomer, axis not shown) [Compound 148, (S)-8-((S)-5-Chloro-6-fluoro-2-phenyl-2-((S)-pyrrolidin-2-yl)-2,3-dihydrobenzofuran-4-yl)-2-(3,3-difluorocyclobutyl)-9-fluoro-N-methyl-1-oxo-1,2-dihydrobenzo [5,6][1,4]dioxo [2,3-d]pyridazine-7-carboxamide]: the IC50 in assay [1] is under 50 nM; in assay [2], under 200 nM.

`COCCn1ncc2c(c1=O)Oc1c(cc(C(N)=O)c(-c3c(Cl)c(F)cc4c3C[C@](c3ccccc3)([C@@H]3CCCN3)O4)c1F)O2` (atropisomer, axis not shown) [Compound 149, (R)-8-((S)-5-Chloro-6-fluoro-2-phenyl-2-((S)-pyrrolidin-2-yl)-2,3-dihydrobenzofuran-4-yl)-9-fluoro-2-(2-methoxyethyl)-1-oxo-1,2-dihydrobenzo[5,6][1,4]dioxa[2,3-d]pyridazine-7-carboxamide]: the IC50 in assay [1] is under 50 nM; in assay [2], under 200 nM.
